How the values were obtained:
angiogenesis = assay: Matrigel sponge in vivo angiogenesis assay; design: species or system C57B1 mice; details: for effect of anti IL-12 antibody on the anti-angiogenic activity: neutralizing anti mouse IL-12 antibody added to the matrigel mixture
Experimental: the assay was performed in C57B1 mice as described (3).
To verify whether IL-12 was a mediator of AST function, a neutralizing anti mouse IL-12 antibody (Peproteck Inc. London) and respectively an irrelevant anti phage 13 antibody (5 prime, 3 prime Inc. Boulder, Co. 150 ng/ml) were added to the mixture.
After animal sacrifice, pellets were fixed in 4% PAF and paraffin embedded; […] sections were stained with hematoxylin-eosin standard procedure.
FIG. 1-b: matrigel in vivo angiogenesis assay with AST. Columns show means and standard error of groups comprising six animals each. KS-conditioned medium (KSCM) is the stimulus (control).
FIG. 1-c: matrigel in vivo angiogenesis assay with peptides.
A combination of peptides and anti IL-12 Ab was added to the samples containing KSCM as indicated.
FIG. 2, a-h: standard ematoxylin-eosin staining of the matrigel pellets relative to experiments in FIG. 1-c.

polymorphonucleate (PMN) = assay: Neutrophil (PMN) chemotaxis assay with IL-8 as chemoattractant; assay type: cell-based; details: CXCR1 and CXCR2-agonist and IL8 as chemoattractants
Experimental: The assay was conducted in 48 wells chambers (Costar Nucleopore, Milan, Italy) according to Falk (4). The lower compartment of each chamber was filled with 27 μL of chemoattractant (IL-8, 50 ng/ml) in RPMI 0.1% BSA (SFM). Serum-free medium (SFM) was used for spontaneous migration without stimulus. The upper compartment was filled with 50 μL of polymorphonucleate (PMN) suspension in SFM (3×10^6 cells/ml); each experimental point was performed in sextuplicate. Chambers were incubated at 37° C. in 5% CO2 in humidified atmosphere for 45 minutes. Filters were removed and the cells fixed in 100% ethanol and stained with toluidine blue. The migrated cells were quantified by scanning of the filter surface and by densitometry of blue staining by NIH Imaging Analysis Software.
FIG. 3: PMN chemotaxis. Densitometry of migrated cells. IL-8 represents the stimulus in each sample, to which either AST or relevant peptides are added.

KS-imm cells = assay: Xenotransplant of Kaposi sarcoma (KS-imm) tumor cells in nude mice; assay type: in vivo, CD1 nude mice; details: single administration three days before cell injection
Experimental: CD1 nude mice were injected in the flank with 5 million KS-imm cells and split in four groups: one was injected peri-tumorally with 2.5 μg AST (Calbiochem, La Jolla, Calif.) in 100 μl PBS-BSA, a control group was injected with vehicle alone, a third group with 2.5 mg of peptide SEQ ID NO:1 or a control peptide. Mice were sacrificed at day 31.

Substance	anti-angiogenic activity in matrigel sponges (hemoglobin quantification) (angiogenesis; KS-conditioned medium (KSCM) as stimulus, compared with angiostatin)	angiogenesis inhibition by hematoxylin-eosin stain of matrigel pellets (angiogenesis; histology of matrigel sponges)	local cellular infiltration in matrigel pellets (angiogenesis; histology of matrigel sponges)	effect of anti IL-12 antibody on the anti-angiogenic activity (angiogenesis)	activity in neutrophil chemotaxis assay (inhibition of migration) (polymorphonucleate (PMN))	tumor growth (KS-imm cells)
HNRTPENFPCKNL (listed as Homo sapiens) [peptide SEQ ID NO:1, 13mer from Kringle 3 of angiostatin, starting from position 307 of human plasminogen]	more active than angiostatin	potent angiogensis inhibition	drastically reduced	inhibited by and antibody anti IL-12	significantly higher compared to other angiostatin peptides	able to diminish tumor growth with respect to angiostatin
angiostatin				inhibited by and antibody anti IL-12		

Reference: patent US20110144022A1, “Anti-Angiogenic Peptide” (ISTITUTO NAZIONALE PER LA RICERCA SUL CANCRO, priority 2004, published 2011)
